Source: patent publication US20220064204A1, “AMORPHOUS FORM OF 5-BROMOPYRIDIN-3-YL 3-DEOXY-3-[4-(3,4,5-TRIFLUOROPHENYL)-1H-1,2,3-TRIAZOL-1-YL]-1-THIO-ALPHA-D-GALACTOPYRANOSIDE” (GALECTO BIOTECH AB, priority 2018, published 2022)
Where two headings read alike, the source gives them in different places.

Experiments:
[1] = Phase 1 first-in-human study, single oral dose pharmacokinetics in healthy subjects (drug layered formulation capsules); assay type: in vivo; settings: plasma; for half-life / AUC(0-t) / Tmax / AUC(0-inf): human; for half-life / AUC(0-t) / Tmax: po; for half-life / AUC(0-t) / AUC(0-inf): geometric mean; for AUC(0-t): read-out: AUC0-24; for Tmax / Tlog: median
Protocol: The first part of this study aims to obtain safety, tolerability and pharmacokinetic data when the compound of formula I is administered orally as a single dose in healthy subjects using the above drug layered formulation.
Experimental Data from Healthy Subject Cohort A1: 5 mg Compound of Formula I (API)
6 healthy subjects received 5 mg of compound of formula I capsules orally as a single dose in the fasted state, and 2 subjects receive placebo. The first 2 subjects (1 active and 1 placebo) were dosed 24 hours before the remaining subjects. Blood samples for pharmacokinetic analysis of plasma API concentrations were obtained by venipuncture before dosing, and then at 0.5, 1, 1.5, 2, 3, 4, 6, 8, 12, 16, 24, 36, and 48 hours post dose. […]
Experimental Data from Healthy Subject Cohort A3 Fasted: 50 mg Compound of Formula I (API)
6 healthy subjects received 50 mg of compound of formula I capsules orally as a single dose in the fasted state, and 2 subjects receive placebo. The first 2 subjects (1 active and 1 placebo) were dosed 24 hours before the remaining subjects. Blood samples for pharmacokinetic analysis of plasma API concentrations were obtained by venipuncture before dosing, and then at 0.5, 1, 1.5, 2, 3, 4, 6, 8, 12, 16, 24, 36, and 48 hours post dose.
Experimental Data from Healthy Subject Cohort A3 Fed: 50 mg Compound of Formula I (API)
6 healthy subjects received 50 mg of compound of formula I capsules orally as a single dose in the fed state, and 2 subjects receive placebo. The first 2 subjects (1 active and 1 placebo) were dosed 24 hours before the remaining subjects. Blood samples for pharmacokinetic analysis of plasma API concentrations were obtained by venipuncture before dosing, and then at 0.5, 1, 1.5, 2, 3, 4, 6, 8, 12, 16, 24, 36, and 48 hours post dose. […]
Experimental Data from Healthy Subject Cohort A5: 100 mg Compound of Formula I (API)
6 healthy subjects received 100 mg of compound of formula I capsules orally as a single dose in the fasted state, and 2 subjects receive placebo. The first 2 subjects (1 active and 1 placebo) were dosed 24 hours before the remaining subjects. Blood samples for pharmacokinetic analysis of plasma API concentrations were obtained by venipuncture before dosing, and then at 0.5, 1, 1.5, 2, 3, 4, 6, 8, 12, 16, 24, 36, and 48 hours post dose.
Experimental Data from Healthy Subject Cohort A6: 200 mg Compound of Formula I (API)
6 healthy subjects received 200 mg of compound of formula I capsules orally as a single dose in the fasted state, and 2 subjects receive placebo. The first 2 subjects (1 active and 1 placebo) were dosed 24 hours before the remaining subjects. Blood samples for pharmacokinetic analysis of plasma API concentrations were obtained by venipuncture before dosing, and then at 0.5, 1, 1.5, 2, 3, 4, 6, 8, 12, 16, 24, 36, and 48 hours post dose.
Experimental Data from Healthy Subject Cohort A7: 400 mg Compound of Formula I (API)
6 healthy subjects received 400 mg of compound of formula I capsules orally as a single dose in the fasted state, and 2 subjects receive placebo. The first 2 subjects (1 active and 1 placebo) were dosed 24 hours before the remaining subjects. Blood samples for pharmacokinetic analysis of plasma API concentrations were obtained by venipuncture before dosing, and then at 0.5, 1, 1.5, 2, 3, 4, 6, 8, 12, 16, 24, 36, and 48 hours post dose.

[2] = Phase 1 study, multiple oral dose (twice a day for 10 days) pharmacokinetics in healthy subjects; assay type: in vivo, human; settings: fasted state; for half-life: po
Protocol: The second part of this study aims to obtain safety, tolerability and pharmacokinetic data when the compound of formula I is administered orally dosed twice a day for 10 days in healthy subjects using the above drug layered formulation.
Experimental Data from Healthy Subject Cohort B1: 50 mg Compound of Formula I (API)
8 healthy subjects received 50 mg of compound of formula I capsules and 3 subjects receive placebo orally twice a day for 10 days. Blood samples for pharmacokinetic analysis of plasma API concentrations were obtained by venipuncture before dosing on day 1, and then at 0.5, 1, 1.5, 2, 3, 4, 6, 8, 12, 16, 24, 36, and 48 hours post dose. Blood sampling was repeated on day 10.
Experimental Data from Healthy Subject Cohort B2: 100 mg Compound of Formula I
8 healthy subjects received 100 mg of compound of formula I capsules and 3 subjects receive placebo orally twice a day for 10 days. Blood samples for pharmacokinetic analysis of plasma API concentrations were obtained by venipuncture before dosing on day 1, and then at 0.5, 1, 1.5, 2, 3, 4, 6, 8, 12, 16, 24 hours post dose. Blood sampling was repeated at day 10.

[3] = Dissolution of filled capsules / pellets in biorelevant media (FaSSIF); assay type: physicochemical; settings: 18 hours
Protocol: As an alternative to poloxamer 188, the surfactant SLS was also evaluated to aid in the dispersion of the SDD.
The resulting drug layered pellets were analysed by UV-HPLC to determine the drug loading as well as by SEM, XRPD and Dissolution in biorelevant media.
The dissolution profile of the drug-layered pellets was compared to the dissolution profiles of the API alone as well an ASD formulation (physical mixture of SDD (API:HPMC603=1:2) and poloxamer 188) (see FIG. 4).

[4] = First in human study, safety and tolerability, single and multiple ascending doses; assay type: in vivo; settings: oral
Protocol: The compound of formula I is tested in a Phase 1, randomized, double-blind, placebo-controlled, first-in-human study in which the safety, tolerability, and pharmacokinetics of orally administered compound of formula I is evaluated in healthy adult subjects and adult subjects with indication of suspected Nonalcoholic steatohepatitis (NASH) and liver fibrosis.
This study aims to obtain safety, tolerability and pharmacokinetic data when the compound of formula I is administered orally as single doses and as multiple doses to healthy subjects. In addition, an optional part has been included to obtain safety and tolerability data when the compound of formula I is administered orally as multiple doses to subjects with suspected Nonalcoholic steatohepatitis (NASH) and liver fibrosis.

[5] = Material characterization by TGA and dynamic vapor sorption (DVS); assay type: physicochemical; settings: crystalline compound
[6] = Solubility of the crystalline compound (statement); assay type: physicochemical; settings: highly crystalline compound
[7] = 5 mg, single oral dose 5 mg, fasted state
[8] = 20 mg, single oral dose 20 mg, fasted state
[9] = 50 mg, single oral dose 50 mg (1 × 50 mg), fasted state
[10] = 50 mg, single oral dose 50 mg (1 × 50 mg), fed state
[11] = 100 mg, single oral dose 100 mg, fasted state
[12] = 200 mg, single oral dose 200 mg, fasted state
[13] = 400 mg, single oral dose 400 mg, fasted state
[14] = single oral dose 100 mg, fasted state
[15] = single oral dose 200 mg, fasted state
[16] = single oral dose 400 mg, fasted state
[17] = 50 mg BID oral, Day 10, healthy subjects, geometric mean
[18] = 100 mg BID oral, Day 10, healthy subjects, geometric mean

For OC[C@H]1O[C@H](Sc2cncc(Br)c2)[C@H](O)[C@@H](n2cc(-c3cc(F)c(F)c(F)c3)nn2)[C@H]1O [GB1211, 5-Bromopyridin-3-yl 3-deoxy-3-[4-(3,4,5-trifluorophenyl)-1H-1,2,3-triazol-1-yl]-1-thio-α-D-galactopyranoside], the half-life [1, 7] was 11.2 h, the AUC(0-t) [1, 7] was 585 ng·h/mL and the Tmax [1, 7] was 2 h. It also gave a half-life [1, 8] of 12.4 h, an AUC(0-t) [1, 8] of 2670 ng·h/mL and a half-life [1, 9] of 12.6 h. It also gave an AUC(0-t) [1, 9] of 3400 ng·h/mL, a Tmax [1, 9] of 3 h and a half-life [1, 10] of 12.8 h. It also gave an AUC(0-t) [1, 10] of 3820 ng·h/mL, a Tmax [1, 10] of 5 h and an AUC(0-t) ([1]; 50 mg, single oral dose 50 mg (10 × 5 mg), fasted state) of 5770 ng·h/mL. For the same molecule, the half-life [1, 11] was 12.1 h, the AUC(0-t) [1, 11] was 4900 ng·h/mL and the Tmax [1, 11] was 3.5 h. The half-life [1, 12] was 15.1 h, the AUC(0-t) [1, 12] was 9050 ng·h/mL and the Tmax [1, 12] was 3.5 h. It also gave a half-life [1, 13] of 14.5 h, an AUC(0-t) [1, 13] of 15100 ng·h/mL and a Tmax [1, 13] of 4 h. The AUC(0-inf) [1, 14] was 6360 ng·h/mL, the AUC(0-inf) [1, 15] was 13100 ng·h/mL and the AUC(0-inf) [1, 16] was 21500 ng·h/mL. The Tlog ([1]; single oral dose 5 mg, fasted state) was 0.00 h, the Tlog ([1]; single oral dose 20 mg, fasted state) was 0.00 h and the Tlog ([1]; single oral dose 50 mg (1 × 50 mg), fasted state) was 0.00 h. For the same molecule, the Tlog ([1]; single oral dose 50 mg (1 × 50 mg), fed state) was 0.75 h, the Tlog ([1]; single oral dose 50 mg (10 × 5 mg), fasted state) was 0.00 h and the Tlog [1, 14] was 0.00 h. The Tlog [1, 15] was 0.00 h, the Tlog [1, 16] was 0.00 h and the Cmin [2, 17] was 249 ng/mL. It also gave an RAAUC [2, 17] of 2.31, a Cmin [2, 18] of 338 ng/mL and an RAAUC [2, 18] of 2.11. The half-life ([2]; human, plasma, 50 mg, 50 mg BID oral, Day 1, geometric mean, unreliable due to short sampling duration 0-12 hours, exploratory) was 7.34 h, the half-life ([2]; human, plasma, 50 mg, 50 mg BID oral, Day 10, healthy subjects, geometric mean) was 20.2 h and the half-life ([2]; human, plasma, 100 mg, 100 mg BID oral, Day 1, geometric mean, unreliable due to short sampling duration 0-12 hours, exploratory) was 7.04 h. For the same molecule, the half-life ([2]; human, plasma, 100 mg, 100 mg BID oral, Day 10, healthy subjects, geometric mean) was 12.5 h, the Cmax ([2]; human, plasma, 50 mg BID oral, Day 1, healthy subjects, geometric mean) was 330 ng/mL and the “API released in the dissolution media” value ([3]; FaSSIF) was “less than 12%”. For the same molecule, the “API concentration in FaSSIF” value ([3]; dissolution) was 0.011 mg/mL, the “safety and tolerability in man” value [4] was “safe and well tolerated” and the hydrate formation ([5]; DVS) was “no indication of hydrate formation”. For the same molecule, the hygroscopicity ([5]; dynamic vapor sorption (DVS)) was “not hygroscopic” and the solubility [6] was “relatively low solubility”.
